Results taken from patent US10883116B2, “Transduction buffer” (Koninklijke Nederlandse Akademie van Wetenschappen, priority 2013, dated 2021).
Like-named read-outs stand apart in the source and are kept apart here.

How the values were obtained:
[1] = tested on: murine embryonic fibroblasts (MEFs); experiment: β-Lactamase protein transduction assay (CCF2-AM), protocol 3/700; conditions: for protein transducing activity of hypertonicity-inducing compound: tonicity adjusted to 700 mOsm/Kg with the compound, 25 mM NDSB201 and osmoprotectants; for enhancement of protein transduction by GABA agonist / effect of endocytic pathway inhibitor on protein transduction: 1 μM β-lactamase; for enhancement of protein transduction by GABA agonist: 25 mM NDSB201 plus GABA agonist, NDSB201 alone = 100%; for effect of growth factor or peptide on β-lactamase transduction of MEFs: 25 mM NDSB201, 30 mM Glycerol, 15 mM Glycine; for protein transduction activity (in words): 25 mM compound, compared with NDSB201 (#01) or parent compound
Text: To further characterize the protein transduction process we analyzed the effect of time, osmolality, transduction compound concentration and protein concentration on the transduction process. To this end, we set up a β-Lactamase protein transduction assay and measured intracellular β-Lactamase activity using CCF2-AM, an intracellular fluorescent β-Lactamase substrate that changes emission wavelength when cleaved by the enzyme (FIG. 3A). […] While we used the immortalized COS7 cell line in our initial studies, we wanted to know if the compound-mediated protein transduction would also allow the transduction of protein into primary cells. We therefore transduced murine embryonic fibroblasts (MEFs) with β-Lactamase (1 μM final concentration), using NaCl-adjusted hypertonic media (700 mOsm/Kg) and 25 mM NDSB201. β-Lactamase activity was set at 1 at the start of the experiment and relative intracellular β-Lactamase activity was measured as a function of time (FIG. 3B, bars). As a control, β-Lactamase transduction was measured in isotonic media in the presence of 25 mM NSDB201 (FIG. 3B, open circles).
β-lactamase transduction was performed using the 3/700 protocol above in murine embryonic fibroblasts (MEFs). A black, clear-bottom 96 well-plate was coated with 0.15 mg/ml of Poly-D-Lysine for 1 h at room temperature. 12,000 MEFs cells were seeded per well in MEF media without antibiotics. Next day, cells were transduced using the transduction protocol 3/700 as describe above. […] Na- or Rb-salt was added to adjust the final tonicity to 700 mOsm/Kg. […] After 3 hrs., the transduction media was replaced by fresh MEF media for 30 min. Subsequently, cells were washed once with phenol-red-free DMEM. β-lactamase activity was measured using the CCF2-AM kit following the manufacturer's instructions. In brief, 120 μl of CCF2-AM loading media was added per well and cells were incubated for 1 h at room temperature. Cells were washed two times with DMEM phenol-red free and incubated for an additional 30-60 min. Fluorescence emission was measured at […] and 510 nm following manufacturer's instructions. All tests were done in triplicate.

COS7 cells = experiment: Oct4 luciferase reporter (6×OCT4-TK-Luc) protein transduction assay; format: cell-based
[2] = tested on: MEFs cells expressing GAL3-GFP protein; experiment: GAL3-GFP macropinosome vesicle leakage reporter assay; conditions: 700/3 conditions
Experimental: Schematic representation of the GAL3-GFP reporter assay. Upon initiation of transduction, extracellularly applied protein is taken up into macropinosomes (grey vesicles). […] At the same time, the compromised macropinosome membrane now allows entry of cytosolic GAL3-GFP protein, which binds to—and accumulates at the intra-macropinosome carbohydrates resulting in a bright fluorescent signal (white vesicles). […] GAL3-GFP cells were incubated with transduction media at 700 mOsmol/Kg with or without the macropinocytosis inhibitor EIPA. Untreated cells were included as negative control.
For transduction to occur, proteins that have been taken by macropinocytosis have to be released into the cytosol. […] To test the efficacy of potential transduction compound candidates, we set up an assay to monitor macropinosome vesicle permeation. […] We set up a reporter system in which Galectin-3 protein is fused to GFP (GAL3-GFP). Cytosolic GAL3-GFP protein relocalises to the interior of permeabilized macropinosomes, whereby a multimer complex is formed with intense green fluorescent emission. MEFs cells expressing GAL3-GFP protein were transduced using the 700/3 conditions.

[3] = tested on: murine embryonic fibroblasts (MEFs); experiment: BrdU incorporation (cell proliferation) after transduction of MEFs; conditions: BrdU 24 hrs after start of transduction, 25 mM compound, 700 mOsm/Kg
Experimental: Open circles indicate relative BrdU incorporation by the transduced cells. BrdU incorporation of untransduced cells was set at 100% and BrdU incorporation of mitomycin C-treated cells was set at 0%.
Cell proliferation was determined using the Cell Proliferation Elisa kit, Brdu (Roche) following manufacturer's instructions (Roche).

[4] = 3 hours, 700 mOsm/Kg NaCl, 25 mM NDSB201
[5] = 3 hours, 25 mM NDSB201, tonicity adjusted with NaCl

Compound: OC[C@H]1O[C@@](CO)(O[C@H]2O[C@H](CO)[C@@H](O)[C@H](O)[C@H]2O)[C@@H](O)[C@@H]1O [Sucrose]
- protein transducing activity of hypertonicity-inducing compound ([1]; 3 hours): failed to induce protein transduction

Compound: NCc1cc(=O)[nH]o1 [Muscimol, reference compound]
- enhancement of protein transduction by GABA agonist ([1]; 3 hours, 700 mOsm/Kg): approximately 300%

Compound: PDGF
- effect of growth factor or peptide on β-lactamase transduction of MEFs ([1]; 3 hours, 700 mOsm/Kg): doubling of β-lactamase uptake

Compound: C/C1=C/C(=O)O[C@@H]2C[C@@H](CC[C@H](C)/C=C\C=C\CC1)O[C@@](O)([C@@H]1CSC(=O)N1)C2 [Latrunculin A, reference compound]
- effect of endocytic pathway inhibitor on protein transduction [1, 4]: completely blocked protein transduction

Compound: O=C(N/N=C/c1ccc(O)c(O)c1)c1cc2ccccc2cc1O [Dynasore, reference compound]
- effect of endocytic pathway inhibitor on protein transduction [1, 4]: ineffective in inhibiting protein transduction

Compound: O=S(=O)([O-])CCC[n+]1ccccc1 [compound 1, 3-(1-pyridino)-1-propanesulfonate, reference compound]
- time after initiation of transduction at which intracellular β-Lactamase activity could be observed ([1]; 1 μM β-Lactamase, 700 mOsm/Kg NaCl, 25 mM NDSB201): 2.5 h
- effect of higher compound concentrations under hyperosmotic conditions ([1]; 700 mOsm/kg, above 10-25 mM): cell loss
- protein transduction activity (in words) ([1]; 3 hours, 700 mOsm/Kg): most efficient
- transduction compound concentration at peak β-Lactamase transduction ([1]; 3 hours, 700 mOsm/kg NaCl, 1 μM β-Lactamase): 10 to 25 mM
- effect of omitting buffer component on Oct4-reporter activation by Oct4-VP16 protein (COS7 cells; COS7 cells): abrogated Oct4-reporter activation
- Gal3-GFP localisation to macropinocytic vesicles (vesicle leakage) [2]: bright vesicle formation

Compound: Insulin: Insulin
- effect of growth factor or peptide on β-lactamase transduction of MEFs ([1]; 3 hours, 700 mOsm/Kg): small, but significant stimulatory effect

Compound: [Cl-].[Li+] [LiCl, lithium chloride]
- protein transducing activity of hypertonicity-inducing compound ([1]; 3 hours): had protein transducing activity

Compound: OC[C@@H](O)[C@@H](O)[C@H](O)[C@H](O)CO [Manitol]
- protein transducing activity of hypertonicity-inducing compound ([1]; 3 hours): failed to induce protein transduction

Compound: CCCCC(=O)O [compound 23, pentanoic acid]
- protein transduction activity (in words) ([1]; 3 hours, 700 mOsm/Kg): greatly diminished transduction activity
- effect on cell proliferation / viability (BrdU incorporation, in words) [3]: severe cell cycle inhibition

Compound: [Cl-].[Na+] [NaCl, Sodium chloride]
- osmolality beyond which cell loss was observed [1, 5]: > 850 mOsm/Kg
- osmolality of maximal β-Lactamase transduction [1, 5]: 700-800 mOsm/Kg
- protein transducing activity of hypertonicity-inducing compound ([1]; 3 hours): the highest activity
- effect of omitting buffer component on Oct4-reporter activation by Oct4-VP16 protein (COS7 cells): abrogated Oct4-reporter activation

Compound: NCC(=O)O [compound 18, Glycine]
- protein transduction activity (in words) ([1]; 3 hours, 700 mOsm/Kg): little to no transduction activity
- β-lactamase transduction activity when combined with reference compound #01 (reference set at 100%) ([1]; equimolar with NDSB201 (#01), 12.5 mM each, total 25 mM, 3 hours, 700 mOsm/Kg): approximately 15%
- Gal3-GFP localisation to macropinocytic vesicles (vesicle leakage) [2]: did not localize into the macropinocytic vesicles

Compound: [Cl-].[Rb+] [RbCl, rubidium chloride]
- protein transducing activity of hypertonicity-inducing compound ([1]; 3 hours): the highest activity

Compound: O=C1NC(=NS(=O)(=O)c2cccc3ccccc23)S/C1=C\c1ccc(Br)cc1 [Pitstop2, reference compound]
- effect of endocytic pathway inhibitor on protein transduction [1, 4]: ineffective in inhibiting protein transduction

Compound: OC[C@@H](O)[C@@H](O)[C@H](O)[C@@H](O)CO [Sorbitol]
- protein transducing activity of hypertonicity-inducing compound ([1]; 3 hours): failed to induce protein transduction

Compound: C[N+]1(CCCS(=O)(=O)[O-])CCCCC1 [compound 03, 3-(1-methylpiperidine)-1-propanesulfonate, reference compound]
- protein transduction activity (in words) ([1]; 3 hours, 700 mOsm/Kg): most efficient

Compound: C=C1[C@@H](C)[C@H]2[C@H](Cc3ccccc3)NC(=O)[C@]23[C@H](OC(C)=O)/C=C/[C@@](C)(O)C(=O)[C@@H](C)C/C=C/[C@H]3[C@@H]1O [Cytochalasin D, reference compound]
- effect of endocytic pathway inhibitor on protein transduction [1, 4]: completely blocked protein transduction

Compound: O=C([O-])[C@H](O)[C@@H](O)[C@H](O)[C@H](O)CO.[Na+] [Sodium Gluconate]
- protein transducing activity of hypertonicity-inducing compound ([1]; 3 hours): efficiency similar to NaCl and RbCl

Compound: CCCCN [compound 24, n-butylamine]
- protein transduction activity (in words) ([1]; 3 hours, 700 mOsm/Kg): greatly diminished transduction activity
- effect on cell proliferation / viability (BrdU incorporation, in words) [3]: severe cell cycle inhibition

Compound: CN(C)c1nc(N)c(C(=O)N=C(N)N)nc1Cl.Cl [DMA, 5-(N,N-dimethyl) amiloride hydrochloride, reference compound]
- effect of endocytic pathway inhibitor on protein transduction [1, 4]: strongly inhibited

Compound: C[C@@H]1[C@H](O)[C@@H](C)/C=C/C=C/CC/C=C/C=C/C=C/C=C/C(O[C@H]2O[C@H](C)[C@@H](O)[C@H](N)[C@@H]2O)CC2O[C@](O)(CC(O)C(O)CCC(O)CC(O)CC(O)CC(=O)O[C@H]1C)CC(O)C2C(=O)O (some centres unmarked) [Nystatin, reference compound]
- effect of endocytic pathway inhibitor on protein transduction [1, 4]: ineffective in inhibiting protein transduction

Compound: CCC(C)(C)CCCS(=O)(=O)O [compound 07]
- protein transduction activity (in words) ([1]; 3 hours, 700 mOsm/Kg): greatly diminished transduction activity
- effect on cell proliferation / viability (BrdU incorporation, in words) [3]: severe cell cycle inhibition

Compound: [Cl-].[K+] [KCl, potassium chloride]
- protein transducing activity of hypertonicity-inducing compound ([1]; 3 hours): had protein transducing activity

Compound: OC[C@H]1O[C@@H](O[C@@H]2[C@@H](CO)OC(O)(CO)[C@H]2O)[C@H](O)[C@@H](O)[C@H]1O (mixture of isomers) [Lactulose]
- protein transducing activity of hypertonicity-inducing compound ([1]; 3 hours): failed to induce protein transduction

Compound: CN(C)CCCN1c2ccccc2Sc2ccc(Cl)cc21 [Chlorpromazine, reference compound]
- effect of endocytic pathway inhibitor on protein transduction [1, 4]: ineffective in inhibiting protein transduction

Compound: [Cl-].[Cs+] [CsCl, caesium chloride]
- protein transducing activity of hypertonicity-inducing compound ([1]; 3 hours): had protein transducing activity

Compound: EGF: epidermal growth factor
- effect of growth factor or peptide on β-lactamase transduction of MEFs ([1]; 3 hours, 700 mOsm/Kg): doubling of β-lactamase uptake

Compound: CP(=O)(O)CCCN [SKF-97541, reference compound]
- enhancement of protein transduction by GABA agonist ([1]; 3 hours, 700 mOsm/Kg): approximately 300%
